Where two headings read alike, the source gives them in different places.
Tests used:
human Cav3.1 = human Cav3.1 (Homo sapiens (Human), UniProt O43497); experiment: T-type calcium channel inhibitory activity, whole-cell patch-clamp with HEK293 cell; format: cell-based; conditions: for inhibition at 600 µM: HEK293, 600 μmol/L, read-out: Cav3.1 % inhibitory rate; for IC50: dose-reactive test, read-out: Cav3.1 IC50 (parenthesized)
Method: (§1) The inhibitory activity of the present compounds for T-type calcium channel was measured by whole-cell patch-clamp method with HEK293 cell (vendor of HEK 293 cell: ATCC, Manassas, Va., USA, builder of expressing cell: ChanTest Corporation., Cleveland, Ohio, USA), in which human Cav3.1, human Cav3.2, or human Cav3.3 is expressed. The culture medium used for HEK293 cell was prepared by adding fetal bovine serum (10%), sodium penicillin G (100 U/mL), streptomycin sulfate (100 μg/mL), and G418 (500 μg/mL) to a mixture medium of Dulbecco's modified Eagle's medium/Ham's F-12 medium. The whole-cell current was evaluated with IonWorks Barracuda system and Population Patch Clamp (both are provided by Molecular Device Corporation, Union City, Calif., USA). The extracellular recording solution used during the recording was Hanks' balanced salt solution. The internal recording solution used herein was 50 mmol/L CsCl, 90 mmol/L CsF, 5 mmol/L MgCl2, 1 mmol/L glycol ether diamine tetraacetic acid (EGTA), and 10 mmol/L 4-(2-hydroxyethyl)piperazine-1-ethanesulfonic acid (HEPES (pH 7.2). The holding voltage was held at −90 mV, then changed to −65 mV. 60 seconds later, −20 mV pulse was added thereto for 200 millisecond to activate the channel on plasma membrane and generate calcium current. The calcium current was recorded with an amplifier of IonWorks Barracuda system, and analyzed with a program of the system (Version 2.0.2). The record of the calcium current was obtained twice, before and after the addition of the compound. In the measurement after adding the compound, the cells were exposed to the recording solution containing the compound for more than 5 minutes and then the current was measured. In the analyses, the ratio of current readout after the compound addition per current readout before the compound addition was calculated, the calculated value was subtracted from one, and the obtained value was converted to percentage. […] The value obtained from each compound was canonicalized based on the two ends of values to obtain each inhibitory rate. The positive control compound used herein was TTA-A2 which is known as T-type calcium channel inhibitor. IC50 value was calculated with Hill equation.
(§2) Each inhibitory rate (%) against T-type calcium channel at the evaluation concentration of the present compound (600 μmol/L) is shown in Table 12, in which the parenthesized values are IC50 values (μmol/L)) calculated from the dose-reactive test.

human Cav3.2 = human Cav3.2 (Homo sapiens (Human), UniProt O95180); experiment: as above; format: cell-based; conditions: for inhibition at 600 µM: HEK293, 600 μmol/L, read-out: Cav3.2 % inhibitory rate; for IC50: dose-reactive test, read-out: Cav3.2 IC50 (parenthesized)
Method: as §1, §2

human Cav3.3 = human Cav3.3 (Homo sapiens (Human), UniProt Q9P0X4); experiment: as above; format: cell-based; conditions: for inhibition at 600 µM: HEK293, 600 μmol/L, read-out: Cav3.3 % inhibitory rate; for IC50: dose-reactive test, read-out: Cav3.3 IC50 (parenthesized)
Method: as §1, §2

[1] = test system: reserpine-induced Parkinson's disease model mouse; experiment: Potentiating effect of levodopa-induced hyperactivity in reserpine-induced Parkinson's disease model mouse; format: in vivo; conditions: Examples 12.5 or 25 mg/kg oral; rasagiline 3 or 10 mg/kg; with levodopa 200 mg/kg i.p.
Method: Dopamine-depleted mice due to reserpine treatment are model mice of akinesia symptoms in Parkinson's disease, said symptoms are relieved with levodopa (L-DOPA). The effect of the present compounds for potentiating the levodopa's effect was tested.
In the present test, male Crl: CD1 (ICR) mice (CHARLES RIVER LABORATORIES JAPAN, INC.) were used. 20-24 hours before starting the movement measurement, reserpine (3 mg/kg) was intraperitoneally administered to the mouse. One hour before starting the movement measurement, the present compound (12-.5 mg/kg or 25 mg/kg of. Examples 1, 2, 3, 4, and 5) was orally administered to the mouse. Shortly before starting the movement measurement, levodopa (200 mg/kg) with benserazide whose amount was ¼ of levodopa in free form was intraperitoneally administered to the mouse. The movement measurement was carried out for 90 minutes, and each total movement was compared.

[2] = test system: unilateral lesion model of nigrostriatal dopamine neuron induced with 6-OHDA; experiment: Extending duration of levodopa-induced rotational behavior in 6-OHDA unilateral lesion model; format: in vivo, rat; conditions: Examples 10 or 30 mg/kg oral; rasagiline 0.6 mg/kg; with levodopa 5 mg/kg i.p.
Rat striatum MAOB = Rat striatum MAOB (Rattus norvegicus (Rat), UniProt P19643); experiment: Activity for inhibiting monoamine oxidase B (MAOB); format: biochemical
Method: MAOB is an enzyme involved in oxidative de-amino acid reaction of an endogenous monoamine neurotransmitter such as dopamine. […] The effect of the present compounds for inhibiting MAOB in rat striatum and simian striatum was tested.
Mitochondria⋅synaptosome fraction containing MAOB was prepared according to the following procedure. To striata of male Slc: Wistar rat (Japan SLC, Inc.) or male cynomolgus monkey (HAMRI CO., LTD.) was added 0.32 mol/L aqueous sucrose by 10 mL per 1 gram as wet weight of the tissue, and the mixture was homogenized. The homogenate was centrifuged at 4° C. at 1,000 g for 10 minutes, and the obtained supernatant was centrifuged again at 4° C. at 17,200 g for 20 minutes. To the obtained precipitate was added a prepared buffer solution (10 mmol/L Tris-HCl buffer solution (pH 7.4), 0.25 mol/L aqueous sucrose, 0.5 mmol/L EDTA-2K) by 10 mL per 1 gram as wet weight of the original tissue, and the mixture was centrifuged again at 4° C. at 17,200 g for 20 minutes. To the obtained precipitate was added the prepared buffer solution by 40 mL per 1 gram as wet weight of the original tissue. The mixture was suspended to be used as an enzyme homogenate solution.
As a substance to be degraded by MAOB, ^14C-labeled β-phenylethylamine ([^14C] β-PEA) was used. [^14C] β-PEA and the present compound solution diluted to each concentration were incubated with the enzyme homogenate solution at 37° C. for a given period, and then the reaction was stopped by adding 3 mol/L cold HCl thereto. The reaction product was extracted with a mixture of water-saturated toluene and ethyl acetate (1:1). The supernatant organic layer was separated, a liquid scintillation cocktail (ACSII, GE Healthcare) was added to the separated organic layer, and the radioactivity was measured with a liquid scintillation counter (TRI-CARB 3100TR, Packard). The IC50 value of each compound was determined based on two parameter logistic model with the inhibitory data of each concentration, said data were obtained from plural trials.

human CA-II = human CA-II (Homo sapiens (Human), UniProt P00918); experiment: Activity for inhibiting carbonic anhydrase (CA); format: biochemical; conditions: 4-nitrophenyl acetate substrate
Method: CA is a zinc metalloenzyme family which catalyzes reversible hydration between carbon dioxide, and bicarbonate and proton.
As a substance for decomposition by CA-II, 4-nitrophenyl acetate was used herein. 4-Nitrophenyl acetate is […] with CA-II to produce 4-nitrophenol. […] To the diluted solution were added […] (final concentration: 5 mmol/L) and the present compound of each concentration, and the mixture was incubated at 37° C. under shading for 30 minutes. […] The IC50 of the compound was obtained through the two-parameter logistic model with the inhibitory rate data in each concentration which was obtained from plural trials.

[3] = [14C] β-PEA substrate, read-out: Rat striatum MAOB IC50

human Cav3.2, sequence (O95180 whole entry): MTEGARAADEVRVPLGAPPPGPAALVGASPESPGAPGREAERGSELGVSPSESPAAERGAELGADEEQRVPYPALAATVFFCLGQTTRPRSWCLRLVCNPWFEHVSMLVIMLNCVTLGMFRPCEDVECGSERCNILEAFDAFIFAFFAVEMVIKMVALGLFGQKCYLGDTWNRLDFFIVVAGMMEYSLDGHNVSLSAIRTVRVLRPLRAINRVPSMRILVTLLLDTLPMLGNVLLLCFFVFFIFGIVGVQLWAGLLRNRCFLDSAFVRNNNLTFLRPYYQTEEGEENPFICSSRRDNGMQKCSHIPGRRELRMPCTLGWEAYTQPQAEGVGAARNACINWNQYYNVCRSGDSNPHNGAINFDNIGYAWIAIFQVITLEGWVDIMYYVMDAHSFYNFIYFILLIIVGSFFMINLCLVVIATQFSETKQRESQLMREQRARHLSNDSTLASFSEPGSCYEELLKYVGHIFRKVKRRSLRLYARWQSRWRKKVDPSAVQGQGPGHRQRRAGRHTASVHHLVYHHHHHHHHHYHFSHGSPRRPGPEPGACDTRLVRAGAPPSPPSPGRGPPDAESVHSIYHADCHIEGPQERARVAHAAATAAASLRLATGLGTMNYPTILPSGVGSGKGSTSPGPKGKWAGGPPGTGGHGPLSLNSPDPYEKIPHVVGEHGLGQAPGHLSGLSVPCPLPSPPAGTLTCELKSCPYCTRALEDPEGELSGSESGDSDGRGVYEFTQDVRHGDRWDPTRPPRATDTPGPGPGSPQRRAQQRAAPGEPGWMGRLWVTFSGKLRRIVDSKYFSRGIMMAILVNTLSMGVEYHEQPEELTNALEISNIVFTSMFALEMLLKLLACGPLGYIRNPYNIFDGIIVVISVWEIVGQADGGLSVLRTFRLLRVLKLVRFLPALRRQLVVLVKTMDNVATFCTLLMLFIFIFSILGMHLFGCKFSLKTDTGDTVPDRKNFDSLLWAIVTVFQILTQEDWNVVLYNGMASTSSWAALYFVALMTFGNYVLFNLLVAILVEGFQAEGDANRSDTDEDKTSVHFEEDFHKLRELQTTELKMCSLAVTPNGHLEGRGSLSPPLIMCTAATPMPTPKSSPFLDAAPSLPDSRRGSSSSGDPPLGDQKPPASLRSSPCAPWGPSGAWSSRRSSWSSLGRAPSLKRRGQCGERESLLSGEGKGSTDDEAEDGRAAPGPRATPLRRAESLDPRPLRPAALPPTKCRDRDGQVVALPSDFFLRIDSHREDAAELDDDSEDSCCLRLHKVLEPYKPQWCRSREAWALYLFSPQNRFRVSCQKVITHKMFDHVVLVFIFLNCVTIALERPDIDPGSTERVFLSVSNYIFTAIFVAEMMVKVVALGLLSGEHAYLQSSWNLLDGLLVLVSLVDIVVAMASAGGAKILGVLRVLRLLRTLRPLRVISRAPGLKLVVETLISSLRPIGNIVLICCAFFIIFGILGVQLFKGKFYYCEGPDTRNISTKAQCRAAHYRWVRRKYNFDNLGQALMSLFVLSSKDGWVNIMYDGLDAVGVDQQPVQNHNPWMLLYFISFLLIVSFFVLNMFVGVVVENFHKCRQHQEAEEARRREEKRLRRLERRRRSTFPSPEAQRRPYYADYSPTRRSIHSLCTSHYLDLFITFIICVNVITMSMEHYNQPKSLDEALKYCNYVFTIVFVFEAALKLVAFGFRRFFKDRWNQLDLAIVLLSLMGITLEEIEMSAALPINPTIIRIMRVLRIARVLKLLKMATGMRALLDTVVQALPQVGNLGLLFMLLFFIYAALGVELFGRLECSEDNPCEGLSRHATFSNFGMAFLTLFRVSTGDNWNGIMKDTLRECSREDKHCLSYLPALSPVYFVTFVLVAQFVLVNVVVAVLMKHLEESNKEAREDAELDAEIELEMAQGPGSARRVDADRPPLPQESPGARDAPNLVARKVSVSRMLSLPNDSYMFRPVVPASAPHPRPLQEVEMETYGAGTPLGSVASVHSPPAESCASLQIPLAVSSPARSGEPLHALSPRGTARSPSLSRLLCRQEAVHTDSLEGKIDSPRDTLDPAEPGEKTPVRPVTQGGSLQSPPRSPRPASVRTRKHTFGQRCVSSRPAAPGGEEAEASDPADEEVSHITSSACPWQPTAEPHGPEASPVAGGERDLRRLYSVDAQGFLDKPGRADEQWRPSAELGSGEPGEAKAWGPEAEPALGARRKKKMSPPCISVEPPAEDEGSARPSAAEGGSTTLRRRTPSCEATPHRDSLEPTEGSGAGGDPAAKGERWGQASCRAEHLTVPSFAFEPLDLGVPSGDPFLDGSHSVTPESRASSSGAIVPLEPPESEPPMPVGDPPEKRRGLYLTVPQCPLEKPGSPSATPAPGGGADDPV
human Cav3.3, sequence (Q9P0X4 whole entry): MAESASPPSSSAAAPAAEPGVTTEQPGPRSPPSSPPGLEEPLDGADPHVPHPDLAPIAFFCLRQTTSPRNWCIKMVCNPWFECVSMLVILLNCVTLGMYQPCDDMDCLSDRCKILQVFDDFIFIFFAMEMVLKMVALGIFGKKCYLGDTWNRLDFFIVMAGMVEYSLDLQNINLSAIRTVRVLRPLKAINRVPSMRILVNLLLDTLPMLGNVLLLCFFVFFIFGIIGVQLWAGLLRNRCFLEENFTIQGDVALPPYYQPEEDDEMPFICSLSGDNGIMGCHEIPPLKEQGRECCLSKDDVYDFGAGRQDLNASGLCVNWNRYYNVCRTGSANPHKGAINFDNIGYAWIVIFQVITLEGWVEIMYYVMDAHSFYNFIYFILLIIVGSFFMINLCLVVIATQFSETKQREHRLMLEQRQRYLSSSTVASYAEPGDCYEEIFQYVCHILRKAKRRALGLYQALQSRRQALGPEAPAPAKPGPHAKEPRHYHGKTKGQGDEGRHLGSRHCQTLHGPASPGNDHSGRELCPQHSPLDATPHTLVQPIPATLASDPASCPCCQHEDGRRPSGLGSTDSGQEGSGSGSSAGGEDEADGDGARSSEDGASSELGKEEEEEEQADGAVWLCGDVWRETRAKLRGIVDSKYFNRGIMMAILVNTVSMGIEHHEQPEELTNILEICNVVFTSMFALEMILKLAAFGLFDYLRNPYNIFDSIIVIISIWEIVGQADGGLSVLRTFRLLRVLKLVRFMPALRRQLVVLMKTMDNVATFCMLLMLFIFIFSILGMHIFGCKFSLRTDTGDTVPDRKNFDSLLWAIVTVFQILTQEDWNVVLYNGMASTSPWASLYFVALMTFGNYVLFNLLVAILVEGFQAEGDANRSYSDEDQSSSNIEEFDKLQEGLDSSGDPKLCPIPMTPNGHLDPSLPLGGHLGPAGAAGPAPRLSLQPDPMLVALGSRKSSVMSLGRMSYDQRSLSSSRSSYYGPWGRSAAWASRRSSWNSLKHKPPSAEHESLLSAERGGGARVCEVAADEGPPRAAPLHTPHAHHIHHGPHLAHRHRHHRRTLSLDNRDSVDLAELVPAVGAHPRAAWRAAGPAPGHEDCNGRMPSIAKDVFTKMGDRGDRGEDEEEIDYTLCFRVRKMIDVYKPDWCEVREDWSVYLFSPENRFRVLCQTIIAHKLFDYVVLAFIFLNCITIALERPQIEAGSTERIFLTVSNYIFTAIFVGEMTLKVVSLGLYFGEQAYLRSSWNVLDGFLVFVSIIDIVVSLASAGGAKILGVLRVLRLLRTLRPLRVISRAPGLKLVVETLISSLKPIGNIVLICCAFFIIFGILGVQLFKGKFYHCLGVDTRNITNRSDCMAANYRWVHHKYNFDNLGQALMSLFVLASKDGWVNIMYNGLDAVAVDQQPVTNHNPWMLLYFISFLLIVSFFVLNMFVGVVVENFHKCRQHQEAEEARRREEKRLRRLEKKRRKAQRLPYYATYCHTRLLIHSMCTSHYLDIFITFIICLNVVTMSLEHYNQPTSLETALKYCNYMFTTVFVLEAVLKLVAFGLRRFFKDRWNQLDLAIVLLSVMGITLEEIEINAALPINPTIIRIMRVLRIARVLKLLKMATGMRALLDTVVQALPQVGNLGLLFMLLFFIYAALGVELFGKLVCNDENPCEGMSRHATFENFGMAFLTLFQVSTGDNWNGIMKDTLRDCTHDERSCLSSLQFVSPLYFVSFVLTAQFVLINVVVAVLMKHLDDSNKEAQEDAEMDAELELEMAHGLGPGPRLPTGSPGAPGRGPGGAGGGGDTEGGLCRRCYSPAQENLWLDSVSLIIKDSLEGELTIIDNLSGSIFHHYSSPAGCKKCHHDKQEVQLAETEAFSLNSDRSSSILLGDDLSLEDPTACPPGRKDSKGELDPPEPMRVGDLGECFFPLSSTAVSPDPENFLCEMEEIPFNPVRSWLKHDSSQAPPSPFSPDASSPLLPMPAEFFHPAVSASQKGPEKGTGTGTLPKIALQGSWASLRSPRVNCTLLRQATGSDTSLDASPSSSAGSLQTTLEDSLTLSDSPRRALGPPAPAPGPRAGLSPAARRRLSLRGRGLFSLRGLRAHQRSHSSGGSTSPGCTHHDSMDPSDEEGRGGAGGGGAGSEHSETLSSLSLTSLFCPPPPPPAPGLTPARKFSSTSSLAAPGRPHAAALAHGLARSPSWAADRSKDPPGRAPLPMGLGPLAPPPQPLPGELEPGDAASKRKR
Rat striatum MAOB, sequence (P19643 whole entry): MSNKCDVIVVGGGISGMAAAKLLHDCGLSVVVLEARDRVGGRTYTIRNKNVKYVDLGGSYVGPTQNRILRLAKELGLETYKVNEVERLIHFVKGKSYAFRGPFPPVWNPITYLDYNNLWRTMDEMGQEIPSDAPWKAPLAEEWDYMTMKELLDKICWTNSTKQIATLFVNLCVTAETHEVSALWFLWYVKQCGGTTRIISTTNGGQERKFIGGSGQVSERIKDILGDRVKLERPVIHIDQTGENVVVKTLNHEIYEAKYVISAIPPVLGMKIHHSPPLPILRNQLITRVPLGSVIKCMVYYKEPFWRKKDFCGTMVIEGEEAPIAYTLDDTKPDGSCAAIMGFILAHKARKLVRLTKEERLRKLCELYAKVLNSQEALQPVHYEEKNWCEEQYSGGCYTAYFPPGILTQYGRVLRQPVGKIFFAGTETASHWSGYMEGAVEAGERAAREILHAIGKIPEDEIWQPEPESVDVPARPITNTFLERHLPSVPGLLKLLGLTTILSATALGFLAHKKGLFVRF

| SMILES | inhibition at 600 µM (human Cav3.1) | inhibition at 600 µM (human Cav3.2) | inhibition at 600 µM (human Cav3.3) | IC50 (Rat striatum MAOB; [3]) | IC50 (human CA-II) | IC50 (human Cav3.1) | IC50 (human Cav3.2) | IC50 (human Cav3.3) | levodopa-induced hyperactivity (total movement, 90 minutes) [1] | rotational number in the late phase (100-120 minutes) [2] | IC50 (Rat striatum MAOB; Rat striatum MAOB IC50, [14C] β-PEA substrate) | MAOB inhibitory action (Rat striatum MAOB; rat striatum, in words) |
| --- | --- | --- | --- | --- | --- | --- | --- | --- | --- | --- | --- | --- |
| CC(C)(c1noc2ccccc12)S(N)(=O)=O [Example 2, 2-(1,2-benzoxazol-3-yl)propane-2-sulfonamide] | 72.7% | 64% | 70% | > 600 µM | 79.2 µM |  |  |  | significantly-potentiating effect of levodopa-induced hyperactivity | significantly increased the rotational number in the late phase |  |  |
| NS(=O)(=O)C(F)c1noc2ccccc12 (stereo not drawn) [Example 3, 1-(1,2-benzoxazol-3-yl)-1-fluoromethane-sulfonamide] | 69.9% | 64% | 61% | 101 µM | 0.084 µM | 325 µM | 362 µM | 440 µM | significantly-potentiating effect of levodopa-induced hyperactivity | did not show statistically-significant increase, but showed a tendency to increase the rotational number in the late phase |  |  |
| NS(=O)(=O)C(F)(F)c1noc2ccccc12 [Example 4, 1-(1,2-benzoxazol-3-yl)-1,1-difluoromethane-sulfonamide] |  |  |  | 389 µM | 0.023 µM |  |  |  | significantly-potentiating effect of levodopa-induced hyperactivity |  |  |  |
| CCC(c1noc2ccccc12)S(N)(=O)=O (stereo not drawn) [Example 6, 1-(1,2-benzoxazol-3-yl)propane-1-sulfonamide] | 80.4% | 67.4% | 72.9% | > 600 µM | 45.7 µM |  |  |  |  |  |  |  |
| CCCC(c1noc2ccccc12)S(N)(=O)=O (stereo not drawn) [Example 7, 1-(1,2-benzoxazol-3-yl)butane-1-sulfonamide] |  |  |  | > 600 µM | 32.9 µM |  |  |  |  |  |  |  |
| CC(F)(c1noc2ccccc12)S(N)(=O)=O (stereo not drawn) [Example 8, 1-(1,2-benzoxazol-3-yl)-1-fluoroethane-1-sulfonamide] | 83.1% | 70.3% | 73% | > 600 µM | 2.2 µM | 216 µM | 318 µM | 321 µM |  | did not show statistically-significant increase, but showed a tendency to increase the rotational number in the late phase |  |  |
| CC(C)C(c1noc2ccccc12)S(N)(=O)=O (stereo not drawn) [Example 9, 1-(1,2-benzoxazol-3-yl)-2-methylpropane-1-sulfonamide] | 96.5% | 96.9% | 94.3% |  |  |  |  |  |  |  |  |  |
| C[C@H](NCc1ccc(OCc2cccc(F)c2)cc1)C(N)=O [safinamide, reference compound] |  |  |  |  |  |  |  |  |  | did not show statistically-significant increase, but showed a tendency to increase the rotational number in the late phase | 0.193 µM | strong MAOB inhibitory action |

More lines, main results first:

| inhibition at 600 µM (human Cav3.1) | inhibition at 600 µM (human Cav3.2) | inhibition at 600 µM (human Cav3.3) | IC50 (Rat striatum MAOB; [3]) | IC50 (human CA-II) | IC50 (human Cav3.1) | IC50 (human Cav3.2) | IC50 (human Cav3.3) | SMILES | levodopa-induced hyperactivity (total movement, 90 minutes) [1] | rotational number in the late phase (100-120 minutes) [2] | IC50 (Rat striatum MAOB; Rat striatum MAOB IC50, [14C] β-PEA substrate) | MAOB inhibitory action (Rat striatum MAOB; rat striatum, in words) |
| --- | --- | --- | --- | --- | --- | --- | --- | --- | --- | --- | --- | --- |
| 68.5% | 57.7% | 69.7% | > 600 µM |  |  |  |  | COc1ccc2onc(C(C)S(N)(=O)=O)c2c1 (stereo not drawn) [Example 10, 1-(5-methoxy-1,2-benzoxazol-3-yl)ethane-1-sulfonamide] |  |  |  |  |
| 56% | 50.8% | 54.3% | > 600 µM |  |  |  |  | CC(c1noc2ccc(F)cc12)S(N)(=O)=O (stereo not drawn) [Example 11, 1-(5-fluoro-1,2-benzoxazol-3-yl)ethane-1-sulfonamide] |  |  |  |  |
| 95% | 91.5% | 93% | 150 µM |  |  |  |  | CC(c1noc2ccc(Cl)cc12)S(N)(=O)=O (stereo not drawn) [Example 12, 1-(5-chloro-1,2-benzoxazol-3-yl)ethane-1-sulfonamide] |  |  |  |  |

Reference: patent US11535599B2, “Benzisoxazole derivative” (Sumitomo Pharma Co., Ltd., priority 2020, dated 2022)
